PubChem BioAssay AID330 (DTP/NCI, 2004)
“And” between values parts separate entries of the source, which are not always exact repeats. Equal values may be shown once. Toxic doses and inconclusive results are not listed. Rule for the calls: active = survival T/C of 150% or more; inactive = T/C below 125% in these data.

Tested on: P388 leukemia ip, CD2F1 mice, survival T/C
Assay: NCI In Vivo Anticancer Drug Screen. Data for tumor model P388 Leukemia (intraperitoneal) in CD2F1 (CDF1) mice
Conditions: endpoint: median survival time, higher = longer survival
Method in brief: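 Mice carrying the transplanted tumor received test compound or vehicle. Survival was recorded in each group, and the value is the treated-group measurement divided by that of the vehicle-treated control group.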

[1] = dose: 60.0 mg/kg/injection, schedule: Q01DX005 (ip), vehicle: saline with Tween-80
[2] = dose: 120.0 mg/kg/injection, schedule: Q01DX005 (ip), vehicle: saline with Tween-80
[3] = dose: 100.0 mg/kg/injection, schedule: Q04DX002 (ip), vehicle: saline with Tween-80
[4] = dose: 200.0 mg/kg/injection, schedule: Q04DX002 (ip), vehicle: saline with Tween-80
[5] = dose: 400.0 mg/kg/injection, schedule: Q04DX002 (ip), vehicle: saline with Tween-80
[6] = dose: 50.0 mg/kg/injection, schedule: Q01DX005 (ip), vehicle: saline with Tween-80
[7] = dose: 100.0 mg/kg/injection, schedule: Q01DX005 (ip), vehicle: saline with Tween-80
[8] = dose: 50.0 mg/kg/injection, schedule: Q01DX009 (ip), vehicle: saline with Tween-80
[9] = dose: 100.0 mg/kg/injection, schedule: Q01DX009 (ip), vehicle: saline with Tween-80
[10] = dose: 50.0 mg/kg/injection, schedule: Q01DX005 (ip), vehicle: Klucel (hydroxypropylcellulose) (HPC)
[11] = dose: 100.0 mg/kg/injection, schedule: Q01DX005 (ip), vehicle: Klucel (hydroxypropylcellulose) (HPC)
[12] = dose: 12.5 mg/kg/injection, schedule: Q01DX009 (ip), vehicle: Klucel (hydroxypropylcellulose) (HPC)
[13] = dose: 25.0 mg/kg/injection, schedule: Q01DX009 (ip), vehicle: Klucel (hydroxypropylcellulose) (HPC)
[14] = dose: 50.0 mg/kg/injection, schedule: Q01DX009 (ip), vehicle: Klucel (hydroxypropylcellulose) (HPC)
[15] = dose: 200.0 mg/kg/injection, schedule: Q01DX005 (ip), vehicle: saline with Tween-80
[16] = dose: 100.0 mg/kg/injection, schedule: Q01DX001 (ip), vehicle: Klucel (hydroxypropylcellulose) (HPC)
[17] = dose: 200.0 mg/kg/injection, schedule: Q01DX001 (ip), vehicle: Klucel (hydroxypropylcellulose) (HPC)
[18] = dose: 400.0 mg/kg/injection, schedule: Q01DX001 (ip), vehicle: Klucel (hydroxypropylcellulose) (HPC)
[19] = dose: 200.0 mg/kg/injection, schedule: Q01DX009 (ip), vehicle: saline with Tween-80

Measured: T/C

CNC(=O)OCc1ccc(NCCN(C)C)c2c(=O)c3cc(O)ccc3oc12
inactive: dose: 0.38 mg/kg/injection, schedule: Q01DX005 (ip), vehicle: Klucel (hydroxypropylcellulose) (HPC) 97 % of control | dose: 0.75 mg/kg/injection, schedule: Q01DX005 (ip), vehicle: Klucel (hydroxypropylcellulose) (HPC) 106 % of control | dose: 1.5 mg/kg/injection, schedule: Q01DX005 (ip), vehicle: Klucel (hydroxypropylcellulose) (HPC) 113 % of control | dose: 3.0 mg/kg/injection, schedule: Q01DX005 (ip), vehicle: Klucel (hydroxypropylcellulose) (HPC) 124 % of control | dose: 6.0 mg/kg/injection, schedule: Q01DX005 (ip), vehicle: Klucel (hydroxypropylcellulose) (HPC) 120 % of control

COC(=O)c1ccc(N=NN(C)CO)cc1
inactive: [1] 97 % of control | [2] 108 % of control | dose: 240.0 mg/kg/injection, schedule: Q01DX005 (ip), vehicle: saline with Tween-80 115 % of control

CC(C)(C)c1cc(/C2=c3\cc/c([n-]3)=C(\c3cc(C(C)(C)C)c(O)c(C(C)(C)C)c3)c3ccc([n-]3)/C(c3cc(C(C)(C)C)c(O)c(C(C)(C)C)c3)=c3/cc/c([n-]3)=C(\c3cc(C(C)(C)C)c(O)c(C(C)(C)C)c3)c3ccc2[n-]3)cc(C(C)(C)C)c1O.[Zn]
inactive: [3] 97 % of control | [4] 88 % of control | [5] 90 % of control

CC(C)(C)SSCCN
inactive: [6] 103 % of control | [7] 109 % of control

CCCOC(=O)CCCC1=NC2=CC=CC3=NC(C)=NC(=N1)N23
inactive: dose: 25.0 mg/kg/injection, schedule: Q01DX009 (ip), vehicle: saline with Tween-80 107 % of control | [8] 104 % of control | [9] 104 % of control

CC1Cc2ccccc2/C1=N/NC(N)=O (stereo not given)
inactive: [10] 103 % of control | [11] 100 % of control | dose: 200.0 mg/kg/injection, schedule: Q01DX005 (ip), vehicle: Klucel (hydroxypropylcellulose) (HPC) 99 % of control

CC1CN(/N=C/c2ccc([N+](=O)[O-])o2)C(=O)O1 (stereo not given)
inactive: dose: 6.25 mg/kg/injection, schedule: Q01DX009 (ip), vehicle: Klucel (hydroxypropylcellulose) (HPC) 108 % of control | [12] 106 % of control | [13] 103 % of control | [14] 103 % of control

Cc1cccc(/C=N/Nc2cc(C)c3cccc(C)c3n2)n1
inactive: [6] 100 % of control | [7] 89 % of control | [15] 88 % of control

CCN(CC)CCOC(=O)C(C)Oc1c2ccoc2c(OC)c2oc(C)cc(=O)c12 (stereo not given)
inactive: dose: 50.0 mg/kg/injection, schedule: Q01DX005 (ip), vehicle: saline 102 % of control | dose: 100.0 mg/kg/injection, schedule: Q01DX005 (ip), vehicle: saline 106 % of control | dose: 200.0 mg/kg/injection, schedule: Q01DX005 (ip), vehicle: saline 101 % of control

CCOC(=O)C(=O)Cc1ccc(C(=N)N)cc1
inactive: dose: 50.0 mg/kg/injection, schedule: Q01DX009 (ip), vehicle: saline 101 % of control | dose: 100.0 mg/kg/injection, schedule: Q01DX009 (ip), vehicle: saline 96 % of control | dose: 200.0 mg/kg/injection, schedule: Q01DX009 (ip), vehicle: saline 88 % of control

COc1ccc([N+]([O-])=NC#N)cc1
inactive: [12] 95 % of control | [13] 98 % of control | [14] 109 % of control | dose: 50.0 mg/kg/injection, schedule: Q04DX003 (ip), vehicle: Klucel (hydroxypropylcellulose) (HPC) 99 % of control | dose: 100.0 mg/kg/injection, schedule: Q04DX003 (ip), vehicle: Klucel (hydroxypropylcellulose) (HPC) 100 % of control

O=S1(=O)CCC2CCCCC2C1 (stereo not given)
inactive: dose: 6.25 mg/kg/injection, schedule: Q01DX009 (ip), vehicle: saline with Tween-80 109 % of control | dose: 12.5 mg/kg/injection, schedule: Q01DX009 (ip), vehicle: saline with Tween-80 100 % of control

CN(C)CCOC(=O)Nc1cc(Cl)cc(Cl)c1
inactive: [1] 103 % of control | [2] 103 % of control

CC1=CC(O)C(O)C2(C)C1CC1OC(=O)C(OC(=O)CC(C)C)C3C(C)C(O)C4(O)OCC13C42 (stereo not given) (tested in a mixture with another compound)
inactive: dose: 125.0 micrograms/kg/injection, schedule: Q01DX009 (ip), vehicle: other 104 % of control | dose: 250.0 micrograms/kg/injection, schedule: Q01DX009 (ip), vehicle: other 102 % of control | dose: 500.0 micrograms/kg/injection, schedule: Q01DX009 (ip), vehicle: other 103 % of control | dose: 1000.0 micrograms/kg/injection, schedule: Q01DX009 (ip), vehicle: other 108 % of control

Cn1c2ccccc2c2nnc(N/N=C/c3ccc(Cl)cc3)nc21
inactive: [3] 88 % of control | [4] 87 % of control | [5] 98 % of control

Cc1ccc(S(=O)(=O)N/N=C/c2c(-c3ccc(-c4ccccc4)cc3)nc3sccn23)cc1
inactive: [16] 94 % of control | [17] 86 % of control | [18] 88 % of control

CCC12OCCN1CC(C)O2 (stereo not given)
inactive: [8] 98 % of control | [9] 111 % of control | [19] 113 % of control | dose: 400.0 mg/kg/injection, schedule: Q01DX009 (ip), vehicle: saline with Tween-80 119 % of control

COC(=O)c1cccc2c[n+]3c(cc12)-c1[nH]c2cc(OC)ccc2c1CC3
inactive: [6] 100 % of control | [7] 99 % of control | [15] 108 % of control

O=C1C(Cl)=C(Cl)C(=O)c2ccccc21
inactive: dose: 5.0 mg/kg/injection, schedule: Q01DX009 (ip), vehicle: saline with Tween-80 109 % of control | dose: 5.0 mg/kg/injection, schedule: Q04DX003 (ip), vehicle: saline with Tween-80 100 % of control | dose: 10.0 mg/kg/injection, schedule: Q01DX009 (ip), vehicle: saline with Tween-80 109 % of control | dose: 10.0 mg/kg/injection, schedule: Q04DX003 (ip), vehicle: saline with Tween-80 100 % of control | dose: 20.0 mg/kg/injection, schedule: Q01DX009 (ip), vehicle: saline with Tween-80 109 % of control | dose: 20.0 mg/kg/injection, schedule: Q04DX003 (ip), vehicle: saline with Tween-80 95 % of control

CCO/C=C1\SC(=S)N(c2ccccc2OC)C1=O
inactive: dose: 88.0 mg/kg/injection, schedule: Q01DX009 (ip), vehicle: saline with Tween-80 118 % of control | dose: 100.0 mg/kg/injection, schedule: Q04DX003 (ip), vehicle: saline with Tween-80 104 % of control | dose: 132.0 mg/kg/injection, schedule: Q01DX009 (ip), vehicle: saline with Tween-80 119 % of control | dose: 178.0 mg/kg/injection, schedule: Q04DX003 (ip), vehicle: saline with Tween-80 118 % of control | [19] 112 % of control | dose: 200.0 mg/kg/injection, schedule: Q04DX003 (ip), vehicle: saline with Tween-80 109 % of control | dose: 266.0 mg/kg/injection, schedule: Q04DX003 (ip), vehicle: saline with Tween-80 118 % of control | dose: 400.0 mg/kg/injection, schedule: Q04DX003 (ip), vehicle: saline with Tween-80 122 % of control

CCOC(=O)C(CCCCn1cnc2ncnc(Cl)c21)(NC(C)=O)C(=O)OCC
inactive: [16] 105 % of control | [17] 107 % of control | [18] 102 % of control

O=C(O)c1ccc([N+](=O)[O-])o1
inactive: [13] 99 % of control | [14] 89 % of control | dose: 100.0 mg/kg/injection, schedule: Q01DX009 (ip), vehicle: Klucel (hydroxypropylcellulose) (HPC) 96 % of control

O=C1CN(CO)C(=O)N1CO
inactive: dose: 25.0 mg/kg/injection, schedule: Q01DX005 (ip), vehicle: Klucel (hydroxypropylcellulose) (HPC) 114 % of control | [10] 116 % of control and 117 % of control | [11] 116 % of control

[O-]c1n[n+](-c2ccccc2)ns1
inactive: dose: 3.13 mg/kg/injection, schedule: Q01DX009 (ip), vehicle: distilled water + Tween-80 99 % of control and 106 % of control | dose: 6.25 mg/kg/injection, schedule: Q01DX009 (ip), vehicle: distilled water + Tween-80 99 % of control and 101 % of control and 114 % of control | dose: 12.5 mg/kg/injection, schedule: Q01DX009 (ip), vehicle: distilled water + Tween-80 100 % of control and 105 % of control and 124 % of control | dose: 25.0 mg/kg/injection, schedule: Q01DX009 (ip), vehicle: distilled water + Tween-80 99 % of control and 115 % of control and 92 % of control
